In patent publication US20130280188A1, “SELF-TANNING COSMETIC” (KAO CORPORATION, priority 2012, published 2013):

Columns and labels:
olfactory receptor OR5K1 [1] = molecular target: T1, olfactory receptor OR5K1 (Homo sapiens, UniProt Q8NHB7); assay: Luciferase reporter gene assay of olfactory receptor response in HEK293 cells; type: cell-based; settings: for Concentration-dependent response of OR5K1: 0, 3, 10, 30, 100, 300, and 1000 μM, HEK293 cells with RTP1S variant, FIG. 5
T1 construct: expressed in transfected cells; host or cells: HEK293
T1 sequence (Q8NHB7 1-308): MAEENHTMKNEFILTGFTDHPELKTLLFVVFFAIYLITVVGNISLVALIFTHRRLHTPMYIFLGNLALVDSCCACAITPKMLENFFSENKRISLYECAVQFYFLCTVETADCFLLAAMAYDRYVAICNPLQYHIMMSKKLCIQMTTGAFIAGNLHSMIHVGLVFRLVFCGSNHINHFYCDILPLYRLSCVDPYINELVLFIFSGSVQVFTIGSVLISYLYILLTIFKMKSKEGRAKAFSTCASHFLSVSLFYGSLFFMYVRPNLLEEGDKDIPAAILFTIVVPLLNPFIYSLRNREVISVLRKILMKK
Excerpt: Human olfactory receptors were cloned based on sequence information registered in GenBank by PCR using human genomic DNA female (G1521: Promega Corporation) as a template. Each gene amplified by FCR was incorporated into pENTR vector (Invitrogen Inc.) in accordance with the manual and recombined to the NotI and AscI sites located downstream of a Flag-Rho tag sequence in a pME18S vector using the NotI and AscI sites present on the pENTR vector.
An RTP1S variant gene (SEQ ID NO: 3) encoding an RTP1S variant (SEQ ID NO: 4) was incorporated into the EcoRI and XhoI sites of a pME18S vector.
HEK293 cells expressing 373 types of human olfactory receptors were produced. A reaction solution having a composition shown in Table 2 was prepared, left to stand in a clean bench for 15 min and then was dispensed in each well of a 96 well plate (Becton, Dickinson and Company). Subsequently, HEK293 cells (100 μL, 3×10^5 cells/cm^2) were seeded in each well and cultured in an incubator at 37° C. under 5 mass % CO2 for 24 hours.
An olfactory receptor expressed in HEK293 cells couples with endogenous Gas in the cells to activate adenylate cyclase and thereby increases the amount of intracellular cAMP. In this study, the odor response was measured by luciferase reporter gene assay which monitors an increase in amount of intracellular cAMP as the luminescence value derived from a firefly luciferase gene (fluc2P-CRE-hygro). A Renilla luciferase gene was fused with the downstream of a CMV promoter (hRluc-CMV) and was also introduced to HEK293 cells as an internal standard to correct errors in gene transfer efficiency and number of cells.
The culture medium was removed from the culture produced in the above 3), and 75 μL of a solution prepared with a CD293 medium (Invitrogen Inc.) so as to contain a pyrazine derivative (1 mM 2,6-dimethylpyrazine) was added thereto. The cells were cultured in a CO2 incubator for 2.5 hours to sufficiently express the luciferase gene in the cells. The luciferase activity was measured with a Dual-Glo™ luciferase assay system (Promega Corporation) in accordance with the operating manual of the system. The fold increases were calculated by dividing the luminescence value derived from firefly luciferase induced by stimulation with the odor substances by the luminescence value in cells not stimulated with the odor substances and were used as an index of response strength.
Olfactory receptor OR5K1 (SEQ ID NO: 2) was expressed in HEK293 cells together with an RTP1S variant (SEQ ID NO: 4) by the same procedure as in Test Example 3, and the dependency of the response on the concentration (0, 3, 10, 30, 100, 300, and 1000 μM) in various pyrazine compounds was investigated. The pyrazine compounds used in this Example were pyrazine and pyrazine derivatives selected from the group consisting of 2-methylpyrazine, 2,3-dimethylpyrazine, 2,5-dimethylpyrazine, 2,3,5-trimethylpyrazine, 2,3,5,6-tetramethylpyrazine, and 2-ethylpyrazine.

olfactory receptor OR5K1 [2] = molecular target: T1, olfactory receptor OR5K1; assay: Antagonist activity against OR5K1 response to 2,6-dimethylpyrazine (luciferase assay, HEK293 cells); type: cell-based; settings: HEK293 cells expressing OR5K1; for Receptor response-inhibiting rate: 2,6-dimethylpyrazine 1 mM and test material 300 μM (cytotoxic perfumes: 333 μM and 100 JAM); for Antagonist activity on the response of OR5K1 to pyrazine derivatives: 2,6-dimethylpyrazine 1 mM and test material 300 μM
Experimental: Antagonist activities of 174 test materials against olfactory receptor OR5K1 were investigated by examining response of OR5K1 to a pyrazine derivative.
2,6-Dimethylpyrazine (1 mM) and each of the test materials (300 μM) were added to HEK293 cells expressing olfactory receptor OR5K1 by the same procedure as in Test Example 4, and the response of the olfactory receptor to 2,6-dimethylpyrazine was measured to evaluate a change in response of the receptor due to addition of the test material. Perfumes recognized to have cytotoxicity were re-evaluated using a mixture of 333 μM of 2,6-dimethylpyrazine and 100 JAM of a test material.
The receptor response-inhibiting rate of a test material was calculated as follows. The receptor activity (X−Y) by stimulation with 2,6-dimethylpyrazine alone was determined by subtracting the luminescence value (Y) in cells to which the receptor was introduced but were not stimulated with 2,6-dimethylpyrazine from the luminescence value (X) derived from firefly luciferase induced by odor stimulation with 2,6-dimethylpyrazine alone. Similarly, the receptor activity (Z−Y) in the presence of a test material was determined by subtracting the luminescence value (Y) in cells not stimulated with 2,6-dimethylpyrazine from the luminescence value (Z) stimulated with a mixture of 2,6-dimethylpyrazine and the test material. The reduction rate of the receptor activity (Z−Y) in the presence of a test material to the receptor activity (X−Y) by stimulation with 2,6-dimethylpyrazine alone was calculated by the following computation expression:
Inhibition rate (%)={1−(Z−Y)/(X−Y)}×100,
to determine the receptor response-inhibiting rate of the test material. In the measurement, multiple independent experiments were performed in duplicate, and the average of each experiment was used.

Row | Compound | Concentration-dependent response of OR5K1 (olfactory receptor OR5K1 [1]) | Response of olfactory receptor OR5K1 (olfactory receptor OR5K1 [1]; 1 mM, screen of 373 types of human olfactory receptors in HEK293 cells, FIG. 4) | Antagonist activity on the response of OR5K1 to pyrazine derivatives (olfactory receptor OR5K1 [2]) | Receptor response-inhibiting rate (olfactory receptor OR5K1 [2])
1 | Cc1nccnc1C [2,3-dimethylpyrazine] | concentration-dependently responded |  |  | 
2 | Cc1cncc(C)n1 [2,6-Dimethyl pyrazine, 2,6-dimethylpyrazine] | concentration-dependently responded | responded |  | 
3 | Cc1cnccn1 [2-Methyl pyrazine, 2-methylpyrazine] | concentration-dependently responded |  |  | 
4 | CCc1cnccn1 [2-ethylpyrazine] | concentration-dependently responded |  |  | 
5 | CC(=O)CCc1ccc(O)cc1 [Raspberry ketone, 4-(p-hydroxyphenyl)-2-butanone] |  |  | no antagonist activity | Not inhibited
6 | c1cnccn1 [pyrazine] | did not respond |  |  | 

Now from value to molecule, other results behind:

Row | Concentration-dependent response of OR5K1 (olfactory receptor OR5K1 [1]) | Response of olfactory receptor OR5K1 (olfactory receptor OR5K1 [1]; 1 mM, screen of 373 types of human olfactory receptors in HEK293 cells, FIG. 4) | Antagonist activity on the response of OR5K1 to pyrazine derivatives (olfactory receptor OR5K1 [2]) | Compound | Receptor response-inhibiting rate (olfactory receptor OR5K1 [2])
7 | concentration-dependently responded |  |  | Cc1nc(C)c(C)nc1C [2,3,5,6-tetramethylpyrazine] | 
8 | concentration-dependently responded |  |  | Cc1cnc(C)c(C)n1 [2,3,5-trimethylpyrazine] | 
9 | concentration-dependently responded |  |  | Cc1cnc(C)cn1 [2,5-Dimethyl pyrazine, 2,5-dimethylpyrazine] | 
10 |  |  | antagonist activity | CCC(=CCC1CC=C(C)C1(C)C)CO (stereo not drawn) [Bangalol, 2-ethyl-4-(2,2,3-trimethyl-3-cyclopenten-1-yl)-2-buten-1-ol] | 75% or more
11 |  |  | antagonist activity | CC(C=O)Cc1ccc(C(C)C)cc1 (stereo not drawn) [Cyclamen aldehyde, 2-methyl-3-(4-iso-propylphenyl)propanal] | 75% or more
12 |  |  | no antagonist activity | CC(C)CC1CC(C)(O)CCO1 (stereo not drawn) [Florosa, 4-methyl-2-(2-methylpropyl)tetrahydro-2H-4-pyranol] | Not inhibited
13 |  |  | no antagonist activity | CCCCCC1C(=O)CCC1CC(=O)OC (stereo not drawn) [Methyl dihydrojasmonate, methyl dihydrojasmonate] | Not inhibited
14 |  |  | antagonist activity | CCC=C(C)C(O)CCCCC (stereo not drawn) [Undecavertol, 4-methyl-3-decen-5-ol] | 75% or more
